Where two headings read alike, the source gives them in different places. Starred links: 1 amine or outer side, 2 acyl side, 3 side chain; linkers in the order of their positions; H or OH if unused. Non-standard residues stand in square brackets, D forms with d. No end group written: not given here. *: point of attachment. K(DNP) = O=C([C@H](CCCCNc1ccc([N+](=O)[O-])cc1[N+](=O)[O-])N[*:1])[*:2]; Dnp = O=[N+]([O-])c1ccc(*)c([N+](=O)[O-])c1; Benzoyl(2-NHMe) = CNc1ccccc1C(=O)*
Key:
[1] = test system: protease described in Japanese Patent Application Publication No. 2000-102381; conditions: protease of JP 2000-102381; cited from earlier work
[2] = test system: enzyme (protease) of the present invention; format: biochemical, Aureobacterium sp. MIM-CG-9535-I
Protocol: Reagents in the form of o-phenanthroline, EDTA, EGTA, L-cysteine, 2-mercaptoethanol, N-ethylmaleimide, antipain, leupepsin, E-64, phosphoramidon, trypsin inhibitor, chymostatin, TCPK, PMSF, and iodoacetamide were employed as inhibitors.
Each of the reagents was mixed with the synthetic substrate after which the enzyme was added. The degradation reaction was conducted for 30 min at 37° C. and the enzymatic activity was measured. Adopting the case where no inhibitor was added as 100 percent, the relative residual enzymatic activity was calculated.

[3] = test system: enzyme (protease) of the present invention; test: Cutting activity (specific protease activity) on fluorescence-labeled synthetic peptides; format: biochemical, Aureobacterium sp. MIM-CG-9535-I; conditions: for Present or Absent of Specific degradation activity: fluorescence-labeled peptides with varied peptide chain; for Protease cutting activity (degradation of synthetic substrate), Enzyme of the present invention: 100 microgram labeled peptide, 1 microgram protease, 10 min at 37° C. in the dark
Description: Fluorescence-labeled peptides having the amino acid sequences denoted by (1) to (3) below are synthesized by the usual methods. Specifically, a fluorescent substance is attached as label on one side of the cutting site of a peptide having one of the amino acid sequences listed below, and a light-extinguishing substance is attached on the other side. Only when the labeled peptide has been cleaved is florescence detected. No fluorescence is detected even when employed as substrate for an enzyme not having cutting activity on the amino acid sequences given below. The substances used to label the peptide are not specifically limited other than that they be fluorescent and light-extinguishing substances. For example, N-methylanthranic acid can be employed as the fluorescent substance, and a dinitrophenyl group can be employed as the light-extinguishing substance.
To determine specific protease activity in the present invention, a fluorescence-labeled synthetic peptide, obtained by labeling a peptide having one of the amino acid sequences denoted by (1) to (3) above with N-methylanthranic acid on one end and labeling the other end thereof with a dinitrophenyl group, is employed as substrate and incubated with a prescribed quantity of enzyme for a prescribed period in the dark. Subsequently, the product is separated by reverse-phase chromatography and the fluorescent intensity of the separated product is measured to determine cutting activity.
Nma/Dnp florescence-labeled peptides (excitation wavelength 340 nm, fluorescence wavelength 440 nm) having the amino acid sequences of (1) to (3) below labeled on one end with N-methylanthranic acid and on the other end with a dinitrophenyl group were synthesized with a peptide synthesizer by the usual method.
Employing as substrate one of the fluorescence-labeled synthetic peptides obtained, cutting activity was measured under the following conditions.
(§1) A 100 microgram quantity of fluorescence-labeled synthetic peptide was adjusted to 0.2 mg/mL with 10 mM Tris buffer solution, 1 microgram of the above protease of the present invention was added, and the mixture was incubated for 10 min at 37° C. in the dark. The enzyme reaction solution obtained was subjected to reverse-phase HPLC using TSKgel® ODS-80Ts (silica-based, reverse phase chromatography resin; Tosoh Corp.) from 0.1 percent TFA to 80 percent acetonitrile-0.1 percent TFA at a flow rate of 1 mL/min and a gradient of 40 min to separate the degraded peptides. Employing A215 and a fluorescence spectrometer for high-performance liquid chromatography made by Shimatsu Corp., fluorescent intensity was measured at an excitation wavelength of 340 nm and a fluorescence wavelength of 440 nm.
The structure of the peptide chain was varied in the amino acid sequence of (1) above, fluorescence-labeled synthetic peptides were synthesized in the same manner as above, and cutting activity was measured in the same manner as above to verify the amino acids required for the above specific degradation activity.

[4] = test system: enzyme described in Japanese Patent Application Publication No. 2000-102381; test: Cutting activity on fluorescence-labeled synthetic peptides, comparison enzyme; format: biochemical, Aureobacterium; conditions: identical conditions: 10 min at 37° C. in the dark
Protocol: as §1
For comparison, the cutting activity of the enzyme described in the above-cited patent application publication (Japanese Patent Application Publication No. 2000-102381) was measured under identical conditions.

[5] = test system: protease described in Japanese Patent Application Publication No. 2000-102381; conditions: protease of JP 2000-102381; cited from earlier work; remark: listed apart in the source
[6] = Temperature stability of the enzyme; format: physicochemical; conditions: then 30 min at 37° C. with substrate
Protocol: i) Temperature Stability • The enzyme was left standing for one hour at various temperatures of from 0 to 60° C. and subsequently reacted with a synthetic substrate for 30 min at 37° C. Enzyme activity was then measured.

[7] = inhibitor 20 mM, 30 min at 37° C., no inhibitor = 100 percent
[8] = inhibitor 0.05 mM, 30 min at 37° C., no inhibitor = 100 percent

## N[C@@H](CS)C(=O)O [L-Cys, L-cysteine]
[1]
  Enzyme inhibition: inhibited
[2]; [7]
  Residual activity (%): 0%

## Cc1ccc(S(=O)(=O)N[C@@H](Cc2ccccc2)C(=O)CCl)cc1 [TCPK]
[2]; inhibitor 0.1 mM, 30 min at 37° C., no inhibitor = 100 percent
  Residual activity (%): 95%

## O=C(O)CN(CCN(CC(=O)O)CC(=O)O)CC(=O)O [EDTA, ethylenediamine tetraacetic acid]
[1]
  Enzyme inhibition: not
[2]
  Residual activity (%): 93%

## AG FAGP: fluorescence-labeled synthetic peptide, single letter code (AGFAGP; also: fluorescence label, site not given here)
[3]
  Present or Absent of Specific degradation activity: Absent

## GPAG FA: fluorescence-labeled synthetic peptide, single letter code (GPAGFA; also: fluorescence label, site not given here)
[3]
  Present or Absent of Specific degradation activity: Absent

## Nma-Gly-Pro-Ala-Gly-Phe-Ala-Gly-Pro-Lys-(DNP)r-NH2 ({Benzoyl(2-NHMe)}-GPAGFAGP-{K(DNP)-dR-NH2}; SMILES CNc1ccccc1C(=O)NCC(=O)N1CCC[C@H]1C(=O)N[C@@H](C)C(=O)NCC(=O)N[C@@H](Cc1ccccc1)C(=O)N[C@@H](C)C(=O)NCC(=O)N1CCC[C@H]1C(=O)N[C@@H](CCCCNc1ccc([N+](=O)[O-])cc1[N+](=O)[O-])C(=O)N[C@H](CCCNC(=N)N)C(N)=O) [Gly-Pro-Ala-Gly-↓-Phe-Ala-Gly-Pro, fluorescence-labeled synthetic substrate]
[4]
  Protease cutting activity (degradation of synthetic substrate), Enzyme of patent application publication: (X) Does not degrade
[3]
  Protease cutting activity (degradation of synthetic substrate), Enzyme of the present invention: (◯) Degrades
  Present or Absent of Specific degradation activity: Present

## CC(C)C[C@H](NC(=O)[C@H]1O[C@@H]1C(=O)O)C(=O)NCCCCN=C(N)N [E-64]
[2]; [8]
  Residual activity (%): 95%

## OCCS [2-ME, 2-mercaptoethanol]
[2]; [7]
  Residual activity (%): 73%

## O=C(O)CN(CCOCCOCCN(CC(=O)O)CC(=O)O)CC(=O)O [EGTA]
[2]; inhibitor 10 mM, 30 min at 37° C., no inhibitor = 100 percent
  Residual activity (%): 68%

## NC(=O)CI [Iodoacetamide, iodoacetamide]
[1]
  Enzyme inhibition: not
[2]; [7]
  Residual activity (%): 77%

## DNP-Pro-Gln-Gly-Ile-Ala-Gly-Gln-D-Arg (Dnp-PQGIAGQ[dR]) [synthetic collagenase substrate]
[5]
  Degradation activity: only slight degradation activity

## O=S(=O)(F)Cc1ccccc1 [PMSF, phenylmethanesulfonyl fluoride]
[1]
  Enzyme inhibition: not
[2]; [7]
  Residual activity (%): 84%

## casein
[5]
  Degradation activity: exhibits degradation activity

## Pro-Gln-Gly-Ile-Ala-Gly-Gln (PQGIAGQ; also: fluorescence label, site not given here) [Pro-Gln-Gly-↓-Ile-Ala-Gly-Gln, fluorescence-labeled synthetic substrate degraded by the enzyme of the earlier publication]
[4]
  Protease cutting activity (degradation of synthetic substrate), Enzyme of patent application publication: (◯) Degrades
[3]
  Protease cutting activity (degradation of synthetic substrate), Enzyme of the present invention: (X) Does not degrade

## CCN1C(=O)C=CC1=O [N-Ethylmaleimide, N-ethylmaleimide]
[1]
  Enzyme inhibition: not
[2]; [7]
  Residual activity (%): 79%

## DNP-Gln-Gly-Ile-Ala-Gly-Gln-D-Arg (Dnp-QGIAGQ[dR]) [synthetic substrate]
[5]
  Degradation activity: no degradation activity

## CC(C)C[C@H](NC(=O)[C@@H](NC(=O)N[C@@H](Cc1ccccc1)C(=O)O)[C@@H]1CCN=C(N)N1)C(=O)N[C@H](C=O)Cc1ccccc1 [Chymostatin, chymostatin]
[2]; [8]
  Residual activity (%): 85%

## Nma-Gly-Pro-Gln-Gly-Phe-Gln-Gly-Pro-Lys-(DNP)r-NH2 ({Benzoyl(2-NHMe)}-GPQGFQGP-{K(DNP)-dR-NH2}; SMILES CNc1ccccc1C(=O)NCC(=O)N1CCC[C@H]1C(=O)N[C@@H](CCC(N)=O)C(=O)NCC(=O)N[C@@H](Cc1ccccc1)C(=O)N[C@@H](CCC(N)=O)C(=O)NCC(=O)N1CCC[C@H]1C(=O)N[C@@H](CCCCNc1ccc([N+](=O)[O-])cc1[N+](=O)[O-])C(=O)N[C@H](CCCNC(=N)N)C(N)=O) [Gly-Pro-Gln-Gly-↓-Phe-Gln-Gly-Pro, fluorescence-labeled synthetic substrate]
[4]
  Protease cutting activity (degradation of synthetic substrate), Enzyme of patent application publication: (X) Does not degrade
[3]
  Protease cutting activity (degradation of synthetic substrate), Enzyme of the present invention: (◯) Degrades

## Nma-Thr-Gln-Ser-Leu-Val-Thr-Pro-Lys-(DNP)r-NH2 [Gln-Thr-Gln-Ser-↓-Leu-Val-Thr-Pro]
[4]
  Protease cutting activity (degradation of synthetic substrate), Enzyme of patent application publication: (X) Does not degrade
[3]
  Protease cutting activity (degradation of synthetic substrate), Enzyme of the present invention: (◯) Degrades

## CC(=O)N[C@@H](CC(C)C)C(=O)N[C@@H](CC(C)C)C(=O)N[C@H](C=O)CCCNC(=N)N [Leupepsin, leupepsin]
[2]; [8]
  Residual activity (%): 92%

## CC(C)C[C@H](NP(=O)(O)O[C@@H]1O[C@@H](C)[C@H](O)[C@@H](O)[C@H]1O)C(=O)N[C@@H](Cc1c[nH]c2ccccc12)C(=O)O [Phosphoramidon, phosphoramidon]
[2]; [8]
  Residual activity (%): 91%

## c1cnc2c(c1)ccc1cccnc12 [o-Phenanthroline, o-phenanthroline]
[1]
  Enzyme inhibition: inhibited
[2]; inhibitor 2 mM, 30 min at 37° C., no inhibitor = 100 percent
  Residual activity (%): 0%

## GPAG FAG: fluorescence-labeled synthetic peptide, single letter code (GPAGFAG; also: fluorescence label, site not given here)
[3]
  Present or Absent of Specific degradation activity: Absent

## Pro-Ala-Gly-Phe-Ala-Gly-Pro (PAGFAGP; also: fluorescent label, type and site not given here) [PAG FAGP, fluorescence-labeled synthetic peptide, single letter code]
[3]
  Present or Absent of Specific degradation activity: Present

## G FAGP: fluorescence-labeled synthetic peptide, single letter code (GFAGP; also: fluorescence label, site not given here)
[3]
  Present or Absent of Specific degradation activity: Absent

## GPAG F: fluorescence-labeled synthetic peptide, single letter code (GPAGF; also: fluorescence label, site not given here)
[3]
  Present or Absent of Specific degradation activity: Absent

B1: protease of the present invention: protease of molecular weight 21,000±1,000 from Aureobacterium sp. MIM-CG-9535-I cutting specific Gly-Phe and Ser-Leu sites (protein, listed as Aureobacterium sp.)
chain: LIVNTVNSIDDKWSDAQASALTYCVSTAFGARHADVVSAMESGAALWEAASSKIDFIYDSSADANCTTRNNAVLFSVEPVQTTQYIARAFFPSTAPRLQNVLIDDSIWTPGSSWTPTNVLGHELGHVLGFRHEHTRPEAGTCFEDDNWRPLTPYDSSSIMHYPQCNGSSADLSMTSVDTDGVVALYGN
[6]; left standing one hour at 30° C.
  Temperature stability: residual activity: about half
[6]; left standing one hour at 40° C. and above
  Temperature stability: nearly deactivated

Source: US7871797B2, “DNA encoding a bacterial protease for degrading gelatin and collagen” (Jellice Co., Ltd., priority 2003, dated 2011)
